Data taken from patent US20230141603A1, “BENZODIAZEPINE DERIVATIVES AS GABA A GAMMA1 PAM” (Hoffmann-La Roche Inc., priority 2021, published 2023).

Biological target: T1, h-GABAA α2β2γ1 (Homo sapiens, UniProt P47869+Q8N1C3)
T1 sequence (P47869 29-451): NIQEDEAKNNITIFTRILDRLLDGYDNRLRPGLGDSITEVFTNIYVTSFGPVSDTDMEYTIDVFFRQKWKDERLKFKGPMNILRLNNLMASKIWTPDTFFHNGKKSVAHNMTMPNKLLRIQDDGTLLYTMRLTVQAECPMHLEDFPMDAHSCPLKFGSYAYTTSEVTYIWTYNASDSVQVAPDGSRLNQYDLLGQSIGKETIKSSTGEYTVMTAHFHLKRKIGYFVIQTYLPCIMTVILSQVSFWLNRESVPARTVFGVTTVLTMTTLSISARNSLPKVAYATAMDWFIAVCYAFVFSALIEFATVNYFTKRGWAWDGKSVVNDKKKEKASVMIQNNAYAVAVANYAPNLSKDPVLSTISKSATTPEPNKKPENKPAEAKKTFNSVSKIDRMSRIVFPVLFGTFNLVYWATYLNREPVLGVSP
T1 sequence (P47870 25-512 partner limits assumed): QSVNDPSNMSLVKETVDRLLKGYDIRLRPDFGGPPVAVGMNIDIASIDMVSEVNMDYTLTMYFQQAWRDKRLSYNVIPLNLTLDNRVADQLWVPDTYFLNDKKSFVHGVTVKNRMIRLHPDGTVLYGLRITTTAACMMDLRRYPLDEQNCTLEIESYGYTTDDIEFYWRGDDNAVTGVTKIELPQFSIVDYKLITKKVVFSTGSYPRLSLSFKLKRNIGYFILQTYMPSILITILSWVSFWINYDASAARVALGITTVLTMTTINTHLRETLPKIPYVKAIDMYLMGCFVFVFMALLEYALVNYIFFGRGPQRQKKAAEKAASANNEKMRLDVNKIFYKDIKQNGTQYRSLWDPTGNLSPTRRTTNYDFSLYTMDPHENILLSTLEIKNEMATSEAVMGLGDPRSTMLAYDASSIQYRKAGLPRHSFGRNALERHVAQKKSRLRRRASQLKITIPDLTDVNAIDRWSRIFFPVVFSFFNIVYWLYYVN
T1 sequence (Q8N1C3 36-465): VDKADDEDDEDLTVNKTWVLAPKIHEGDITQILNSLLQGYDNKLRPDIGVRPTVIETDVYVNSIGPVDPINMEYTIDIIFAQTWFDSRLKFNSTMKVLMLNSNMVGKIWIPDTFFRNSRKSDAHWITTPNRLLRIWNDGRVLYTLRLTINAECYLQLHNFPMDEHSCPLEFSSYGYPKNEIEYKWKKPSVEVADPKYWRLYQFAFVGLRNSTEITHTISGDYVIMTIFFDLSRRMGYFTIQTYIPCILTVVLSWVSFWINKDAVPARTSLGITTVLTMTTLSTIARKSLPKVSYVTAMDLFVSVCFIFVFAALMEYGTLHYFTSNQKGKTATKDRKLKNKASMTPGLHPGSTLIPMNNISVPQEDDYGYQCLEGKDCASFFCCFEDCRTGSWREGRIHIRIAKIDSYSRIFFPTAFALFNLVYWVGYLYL
Experiment: Radioligand binding assay, [3H]RO7239181 competition, HEK293F membranes
Design: signal peptide of human GABAA α5 subunit (Met1 to Ser31), replacing the α2 signal peptide (N); expressed in transfected cells; host or cells: HEK293F cells (ThermoFisher R79007), membranes
Method: The affinity of compounds at GABAA γ1 subunit-containing receptors was measured by competition for [^3H]RO7239181 (67.3 Ci/mmol; Roche) binding to membranes from HEK293F cells (ThermoFisher R79007) expressing human (transiently transfected) receptors of composition […], α2β2γ1, α1β2γ1.
Harvested pellets from HEK293F cells expressing the different GABAA receptor subtypes were resuspended in Mannitol Buffer pH 7.2-7.4 (Mannitol 0.29M, Triethylamine 10 mM, Acetic acid 10 mM, EDTA 1 mM plus protease inhibitors (20 tablets Complete, Roche Diagnostics Cat. No. 05 056 489 001 per liter)), washed two times and then resuspended at 1:10 to 1:15 dilution in the same buffer. Cell disruption was performed by stirring the suspension in a Parr vessel #4637 at 435 psi for 15 minutes, and then the suspensions were centrifuged at 1000×g for 15 minutes at 4° C. (Beckman Avanti J-HC; rotor JS-4.2). The supernatant (S1) was transferred in a 21 Schott flask and the pellet (P1) was resuspended with Mannitol Buffer up to 175 ml. The resuspended pellet was transferred into a 250 ml Corning centrifugal beaker and centrifuged at 1500×g for 10 minutes at 4° C. (Beckman Avanti J-HC; rotor JS-4.2). The supernatant (S1) was then transferred in the 21 Schott flask and the pellet was discarded. The supernatants (S1) were centrifuged in 500 ml Beckman polypropylene centrifugal beaker at 15′000×g for 30 minutes at 4° C. (Beckman Avanti J-20 XP; rotor JLA-10.500). The pellet (P2) was resuspended with Mannitol Buffer 1:1 and frozen at −80° C. The supernatant (S2) was centrifuged in 100 ml Beckman polypropylene centrifugal tubes at 48000×g for 50 minutes at 4° C. (Beckman Avanti J-20 XP; rotor JA-18). The supernatant (S3) was discarded and the pellet (P3) was resuspended with 1:1 Mannitol Buffer. The P2 and P3 protein concentration was determined with the BIORAD Standard assay method with bovine serum albumin as standard and measured on the NANO-Drop 1000. The membrane suspension was aliquots (500 μl per tube) and stored at −80° C. until required. Membrane homogenates were resuspended and polytronised (Polytron PT1200E Kinematica AG) in Potassium Phosphate 10 mM, KCl 100 mM binding buffer at pH 7.4 to a final assay concentration determined with a previous experiment.
Assays were incubated to equilibrium for 1 hour at 4° C. and then, membranes were filtered onto unifilter (96-well white microplate with bonded GF/C filters preincubated 20-50 minutes in 0.3% Polyethylenimine) with a Filtermate 196 harvester (Packard BioScience) and washed 4 times with cold Potassium Phosphate 10 mM pH 7.4, KCl 100 mM binding buffer. After drying, filter-retained radioactivity was detected by liquid scintillation counting. Ki values were calculated using Excel-Fit (Microsoft) and are the means of two determinations.

SMILES	Ki [nM]
Cc1nnc2n1-c1ccc(Br)c(Cl)c1C(c1ncccc1F)=NC2 [Example 24, 8-bromo-7-chloro-6-(3-fluoro-2-pyridyl)-1-methyl-4H-[1,2,4]triazolo[4,3-a][1,4]benzodiazepine]	24.3
Cc1nnc2n1-c1ccc(C(F)F)c(Cl)c1C(c1c(F)cccc1F)=NC2 [Example 25, 7-chloro-8-(difluoromethyl)-6-(2,6-difluorophenyl)-1-methyl-4H-[1,2,4]triazolo[4,3-a][1,4]benzodiazepine]	49.2
O=c1[nH]nc2n1-c1ccc(Br)c(Cl)c1C(c1ccccc1F)=NC2 [Example 26, 8-bromo-7-chloro-6-(2-fluorophenyl)-2,4-dihydro-[1,2,4]triazolo[4,3-a][1,4]benzodiazepin-1-one]	31.6
Fc1ccccc1C1=NCc2nnc(-c3cccnn3)n2-c2ccc(C(F)(F)F)c(Cl)c21 [Example 27, 7-chloro-6-(2-fluorophenyl)-1-pyridazin-3-yl-8-(trifluoromethyl)-4H-[1,2,4]triazolo[4,3-a][1,4]benzodiazepine]	84.5
Cn1cc(-c2nnc3n2-c2ccc(Cl)c(Cl)c2C(c2c(F)cccc2F)=NC3)cn1 [Example 28, 7,8-dichloro-6-(2,6-difluorophenyl)-1-(1-methylpyrazol-4-yl)-4H-[1,2,4]triazolo[4,3-a][1,4]benzodiazepine]	9.4
Fc1cccnc1C1=NCc2nncn2-c2ccc(Br)c(Cl)c21 [Example 29, 8-bromo-7-chloro-6-(3-fluoro-2-pyridyl)-4H-[1,2,4]triazolo[4,3-a][1,4]benzodiazepine]	47.4
OCc1nnc2n1-c1ccc(Br)c(Cl)c1C(c1c(F)cccc1F)=NC2 [Example 33, [8-bromo-7-chloro-6-(2,6-difluorophenyl)-4H-[1,2,4]triazolo[4,3-a][1,4]benzodiazepin-1-yl]methanol]	12.7
Fc1cccc(F)c1C1=NCc2nncn2-c2ccc(I)c(Cl)c21 [Example 34, 7-chloro-6-(2,6-difluorophenyl)-8-iodo-4H-[1,2,4]triazolo[4,3-a][1,4]benzodiazepine]	10.1
Cl.NCc1nnc2n1-c1ccc(Br)c(Cl)c1C(c1c(F)cccc1F)=NC2 [Example 36, [8-bromo-7-chloro-6-(2,6-difluorophenyl)-4H-[1,2,4]triazolo[4,3-a][1,4]benzodiazepin-1-yl]methanamine hydrochloride]	8.5
Fc1cccc(F)c1C1=NCc2nncn2-c2ccc(C(F)(F)F)c(Cl)c21 [Example 37, 7-chloro-6-(2,6-difluorophenyl)-8-(trifluoromethyl)-4H-[1,2,4]triazolo[4,3-a][1,4]benzodiazepine]	41.4
Fc1cccc(F)c1C1=NCc2nnc(-c3cccnn3)n2-c2ccc(C(F)(F)F)c(Cl)c21 [Example 38, 7-chloro-6-(2,6-difluorophenyl)-1-pyridazin-3-yl-8-(trifluoromethyl)-4H-[1,2,4]triazolo[4,3-a][1,4]benzodiazepine]	12.6
Fc1cccc(F)c1C1=NCc2nnc(-c3cccnn3)n2-c2ccc(I)c(Cl)c21 [Example 39, 7-chloro-6-(2,6-difluorophenyl)-8-iodo-1-pyridazin-3-yl-4H-[1,2,4]triazolo[4,3-a][1,4]benzodiazepine]	4.2
Cc1nnc2n1-c1ccc(C(F)(F)F)c(Cl)c1C(c1c(F)cccc1F)=NC2 [Example 40, 7-chloro-6-(2,6-difluorophenyl)-1-methyl-8-(trifluoromethyl)-4H-[1,2,4]triazolo[4,3-a][1,4]benzodiazepine]	26.8
Cc1nnc2n1-c1ccc(I)c(Cl)c1C(c1c(F)cccc1F)=NC2 [Example 41, 7-chloro-6-(2,6-difluorophenyl)-8-iodo-1-methyl-4H-[1,2,4]triazolo[4,3-a][1,4]benzodiazepine]	5.5
Fc1cccc(F)c1C1=NCc2nnc(-c3cccnn3)n2-c2ccc(Br)c(Br)c21 [Example 42, 7,8-dibromo-6-(2,6-difluorophenyl)-1-pyridazin-3-yl-4H-[1,2,4]triazolo[4,3-a][1,4]benzodiazepine]	5.5
